Patent publication US9957262B2, “Opioid analgesic” (NATIONAL UNIVERSITY CORPORATION CHIBA UNIVERSITY, priority 2013, dated 2018)
pKi: −log10 of the molar value. “Also recorded” adds a separate entry of the source. Where two headings read alike, the source gives them in different places.

What was measured:
opioid receptors = details: guinea pig small intestine, via opioid receptors; cited from earlier work
mice = details: subcutaneous or oral administration, tail-flick test or hot-plate test; cited from earlier work
ddY strain mice = assay: Mouse tail-flick test, subcutaneous administration; type: in vivo; details: for analgesic action in words: s.c., 0.3, 1 and 3 mg/kg; for time after administration at which the analgesic action returned to the vehicle level: any of the doses
Procedure: The results of the test are represented by dose-response curves. […] In addition, a similar test was performed by using a vehicle as a negative control. The analgesic action of each compound was quantified by using a percentage of maximum possible effect (% MPE). % MPE was calculated from the following equation: % MPE=[(Post-drug latency−Pre-drug latency)/(Cut-off time−Pre-drug latency)]×100. The abscissa axis of FIG. 1 indicates a time after the administration of each compound (time after injection (min)).
Six-week-old male ddY strain mice (Japan SLC, Inc.) were used.
MGM-30 and MGM-29 were each dissolved in 25 mM phosphate buffer (pH 5.3 to 5.5). MGM-9, which was a known mitragynine derivative compound, was used as a sample for comparison. MGM-9 was obtained by synthesis according to a method similar to a method described in each of the previous reports (Patent Literatures 2 and 3 and Non Patent Literature 3).
A tail-flick test is a method of evaluating the analgesic effect of a compound, which comprises applying a nociceptive stimulus, for example, a heat stimulus, to the tail of a mouse, and then using as an indicator flight response elicited by the stimulus. Since a mouse respond to the heat stimulus by flicking or moving its tail out of the path of the stimulus, the tail is exposed to a photocell located in a tail-flick analgesia meter (Ugo Basile Tail-flick Unit 7360, Ugo Basile) immediately below the tail. A reaction time is automatically recorded.
Before treatment with the compounds, the vehicle, or physiological saline, a nociceptive threshold was measured three times, and the mean of the reaction time was used as a pre-drug latency for each mouse. The intensity of the heat stimulus was adjusted to such an intensity that mice flicked the tail upward within from 2 seconds to 4 seconds, and a time for heat treatment was set to a maximum stimulation time (cut-off time) of 10 seconds in order to prevent tissue damage. Each of the compounds was subcutaneously administered to mice in a volume of 10 mL/kg with doses 0.3 mg/kg, 1 mg/kg, and 3 mg/kg. A latency after the administration (post-drug latency) was measured 15 minutes, 30 minutes, 45 minutes, 60 minutes, 90 minutes, 120 minutes, and 180 minutes after the administration. The vehicle used for diluting the compounds was used as a control in place of the compounds, and was administered in the same volume. The analgesic action of each compound was quantified through use of a ratio to the maximum drug efficacy, i.e., a percentage of maximum possible effect (hereinafter abbreviated as % MPE) % MPE was calculated from the following equation: % MPE=[(Post-drug latency−Pre-drug latency)/(Cut-off time−Pre-drug latency)]×100. Each value is expressed as the mean of data obtained from six mice±standard error.
Data was expressed as the mean±standard error. Statistical analyses were performed by the two-tailed Student's t test for comparison of two groups and by a one-way analysis of variance followed by a Bonferroni multiple-comparison test for comparison of more than two groups. A P value of <0.05 was considered statistically significant.

human μ-opioid receptors = target: T1, human μ-opioid receptors (Homo sapiens, UniProt P35372); assay: Human μ-opioid receptor binding test with [3H]-DAMGO; details: for pKi: [3H]-DAMGO 1 nM, CHO-K1 membrane fraction expressing human μ-opioid receptor, read-out: hMOR binding Ki
T1 construct: purchased PerkinElmer; host or cells: CHO-K1 cells (membrane fraction)
T1 sequence (P35372 whole entry): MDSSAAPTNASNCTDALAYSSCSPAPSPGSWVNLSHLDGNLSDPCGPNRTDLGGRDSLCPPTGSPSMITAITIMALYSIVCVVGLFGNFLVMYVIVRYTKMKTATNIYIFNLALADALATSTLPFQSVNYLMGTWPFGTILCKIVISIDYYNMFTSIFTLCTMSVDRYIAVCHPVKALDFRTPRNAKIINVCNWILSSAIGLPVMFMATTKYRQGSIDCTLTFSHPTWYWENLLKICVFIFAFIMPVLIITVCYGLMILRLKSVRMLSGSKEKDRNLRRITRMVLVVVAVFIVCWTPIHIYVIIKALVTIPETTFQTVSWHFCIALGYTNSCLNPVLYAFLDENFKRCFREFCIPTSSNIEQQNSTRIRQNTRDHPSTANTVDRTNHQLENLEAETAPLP
Procedure: The binding of each of MGM-30 and MGM-29 to human μ-opioid receptors was evaluated through use of a μ-opioid receptor ligand DAMGO ([D-Ala(2), N-Me-Phe(4), Gly-ol(5)] enkephalin acetate salt). MGM-9 was used as a sample for comparison and evaluated by the same method.
A cell membrane fraction of CHO-K1 cells expressing human μ-opioid receptor gene (manufactured by PerkinElmer) was used as a reagent. The human μ-opioid receptor-expressing cell membrane fraction was diluted to 1 mg/mL or 100 μg/mL with 50 mM Tris-HCl (pH 7.4), and then 1 mL of the dilution was dispensed in each of screw-capped vials, cryopreserved at −80° C., and dissolved before use. DAMGO was prepared at 1 mM with dimethylsulfoxide (hereinafter abbreviated as DMSO), and then dispensed in each of screw-capped vials, cryopreserved at −20° C., and dissolved before use.
A human μ-opioid receptor binding test was performed through use of the human μ-opioid receptor-expressing cell membrane fraction and [^3H]-labeled DAMGO (DAMGO, [TYROSYL-3,5-3H], manufactured by PerkinElmer: hereinafter referred to as [^3H]-DAMGO). Specifically, 10 μL of [^3H]-DAMGO (final concentration: 1 nM) diluted to 50 nM with 50% ethanol was added to 10 μL of a test compound solution obtained by diluting each of MGM-30, MGM-29, and MGM-9 with DMSO so as to have a final concentration of from 0.1 nM to 10,000 nM. 480 μL of the μ-opioid receptor-expressing cell membrane fraction diluted to 40 μg/mL with binding assay buffer (10 mM MgCl2, 50 mM Tris-HCl, 0.2% BSA, pH 7.4) was further added, followed by mixing, and the mixture was then subjected to a reaction at 27° C. for 2 hours. The same tests were performed for measurement of total binding activity by using 10 μL of DMSO in place of the test compound, and for measurement of μ-opioid receptor non-specific binding activity by using 10 μL of 1 mM DAMGO (final concentration: 20 μM) in place of the test compound. The binding reaction was terminated by suction filtration with a GF/C filter (manufactured by Whatman) preimmersed in 0.5% polyethylene imine. The filter was washed four times with 2.5 mL of a washing buffer (10 mM Tris-HCl, pH 7.4), and radioactivity remaining in the filter was measured. Then, a dissociation constant (Kd value) of [^3H]-DAMGO for the μ-opioid receptor-expressing cell membrane fraction was calculated by Scatchard plot analysis.
IC50 value was calculated, which is a test compound concentration at which the specific binding of [^3H]-DAMGO to human μ-opioid receptors was inhibited by 50%, by using analysis software XLfit™ ([…]). Then, an inhibition constant (Ki value) was calculated using the following equation: Ki=IC50/(1+S), S=(Concentration of [^3H]-DAMGO/Kd of [^3H]-DAMGO).

[1] = target: hMOR (human μ-opioid receptors) (Homo sapiens, UniProt P35372); assay: hMOR agonist activity (% DAMGO); type: biochemical
Chain of hMOR (human μ-opioid receptors) (P35372 whole entry): as above

[2] = Metabolic stability test, human liver microsome; type: in vitro ADME; details: for Metabolic stability Ms human (% remaining): human liver microsomal fraction, 37° C., 30 minutes, NADPH; for metabolic stability compared to formula (III), in words: in vitro metabolic stability test using liver microsome
Description: (§1) Liver microsome was used and subjected to a reaction with MGM-30 or MGM-29 for a predetermined time. A sample subjected to the reaction was compared to a sample not subjected to the reaction to calculate a residual ratio for evaluating a degree of a compound that was metabolized in liver. MGM-9 was used as a sample for comparison and evaluated by the same method.
(§2) Commercially available pooled human liver microsome (manufactured by Xenotech) was used as human liver microsome. Pooled rat liver microsome prepared from rat liver by a method known per se was used as rat liver microsome.
(§3) A metabolic stability test was specifically performed as described below. First, a test compound was subjected to a reaction (oxidative reaction) at 37° C. for 0 minutes or 30 minutes in 0.2 mL of a buffer (50 mmol/L tris-HCl pH 7.4, 150 mmol/L potassium chloride, 10 mmol/L magnesium chloride) containing 0.5 mg protein/mL of liver microsome in the presence of 1 mmol/L nicotinamide adenine dinucleotide phosphate (hereinafter abbreviated as NADPH). After the reaction, 50 μL of the reaction liquid was added to 100 μL of a solution of methanol/acetonitrile=1/1 (volume/volume: hereinafter abbreviated as v/v), followed by mixing and centrifugation at 3,000 rpm for 15 minutes. The test compound in the centrifugation supernatant was quantified by liquid chromatograph/tandem mass spectrometry (LC/MS/MS). Then, the amount of the compound at the start of the reaction was defined as 100%, and the residual ratio of the test compound after the reaction was calculated. A hydrolysis reaction was performed in the absence of NADPH, and a glucuronidation reaction was performed in the presence of 5 mM UDP-glucuronic acid in place of NADPH. Then, the same operation was performed.

[3] = Metabolic stability test, rat liver microsome; type: in vitro ADME; details: rat liver microsomal fraction, 37° C., 30 minutes, NADPH
Description: as §1, §2, §3

[4] = 3 mg/kg s.c., 15 minutes after administration
[5] = 3 mg/kg s.c., 15 minutes to 60 minutes after administration

| SMILES | analgesic action (% MPE) (ddY strain mice; [4]) | analgesic action (% MPE) (ddY strain mice; [5]) | time after administration at which the maximum analgesic action was expressed (ddY strain mice; s.c.) | analgesic action in words (ddY strain mice) | time after administration at which the analgesic action returned to the vehicle level (ddY strain mice; s.c.) | pKi (human μ-opioid receptors) | hMOR agonist (% DAMGO) [1] | Metabolic stability Ms human (% remaining) [2] | Metabolic stability Ms rat (% remaining) [3] | metabolic stability compared to formula (III), in words [2] | also measured |
| --- | --- | --- | --- | --- | --- | --- | --- | --- | --- | --- | --- |
| CC[C@@H]1CN2CC[C@@]3(O)C(=Nc4cccc(OC)c43)[C@@H]2C[C@@H]1/C(=C\OC)C(=O)OC [7-hydroxymitragynine] | – | – | – | – | – | – | – | – | – | – | effect on contraction induced by electrical stimulation (opioid receptors): inhibited contraction induced by electrical stimulation; antinociceptive action (mice): remarkable antinociceptive action |
| CC[C@@H]1CN2CC[C@@]34OCCO[C@@]3(Nc3ccc(F)c(OC)c34)[C@@H]2C[C@@H]1/C(=C\OC)C(=O)OC [MGM-9, reference compound] | 100% | 100% | 15 min | dose-dependent analgesic action | One hundred and eighty | 8.46 | 49.0 % DAMGO | 57 % remaining | 3 % remaining | – | analgesic action (% MPE) (ddY strain mice; 1 mg/kg s.c., 15 minutes after administration): 100%; time after administration until which the analgesic action was sustained (ddY strain mice; 3 mg/kg s.c.): 120 min |
| CC[C@@H]1CN2CC[C@@]34OCCC[C@@]3(Nc3cccc(OC)c34)[C@@H]2C[C@@H]1/C(=C\OC)C(=O)OC [MGM-29] | about 20% | – | – | limited analgesic action; also recorded: dose-dependent analgesic action | – | 8.31 | 45.9 % DAMGO | 78 % remaining | 36 % remaining | remarkably high metabolic stability | analgesic action in words (ddY strain mice; listed as formula (II)): exhibited an analgesic action, although the action was determinative; binding affinity for human μ-opioid receptors relative to MGM-9 (formula (III)), in words (human μ-opioid receptors): comparable to that of MGM-9; binding affinity for human μ-opioid receptors relative to MGM-9 (formula (III)), in words (human μ-opioid receptors; listed as formula (II)): comparable to that of the compound represented by the formula (III) |
| CC[C@@H]1CN2CC[C@@]34OCC[C@@]3(Nc3cccc(OC)c34)[C@@H]2C[C@@H]1/C(=C\OC)C(=O)OC [MGM-30] | – | 100% | 15 min | dose-dependent analgesic action; also recorded: most potent analgesic action and had the longest duration of action | 180 min | 9.92 | 46.2 % DAMGO | 92 % remaining | 43 % remaining | remarkably high metabolic stability | analgesic action (% MPE) (ddY strain mice; 0.3 mg/kg s.c., 15 minutes to 30 minutes after administration): about 95%; time after administration until which the analgesic action was sustained (ddY strain mice; 1 mg/kg and 3 mg/kg s.c.): 90 min; analgesic action (% MPE) (ddY strain mice; 1 mg/kg s.c., 15 minutes to 60 minutes after administration): 100%; analgesic action relative to the compound of formula (III) (MGM-9) (ddY strain mice; s.c.): approximately 3 fold; analgesic action in words (ddY strain mice; listed as formula (I)): potent analgesic action in a dose-dependent manner; binding affinity for human μ-opioid receptors relative to MGM-9 (formula (III)) (human μ-opioid receptors): about 30 fold |
